Data on 4 molecules can be found in patent US10577334B2, “Crystalline form E of tafamidis meglumine, process for preparation and use thereof” (Crystal Pharmatech Co., Ltd., priority 2016, dated 2020).

Where a name gives a salt, the structure may show the parent alone. Read-outs that look alike come from different tables or passages of the source. A value given as a limit tells only on which side of the number the result lay.

The conditions of data set [1]: cited from earlier work.
The nature of data set [2]: Stability of solid form on storage, checked by XRPD. Format: physicochemical. Conditions: for Final Solid Form: 11 months, XRPD. As for the experimental part:
Solid samples of Form E were stored under conditions of 25° C./60% relative humidity (RH) and 40° C./75% RH for 11 months and XRPD were tested. The XRPD patterns before and after storage were substantially as depicted in FIG. 7.
Form E remains stable for at least 11 months under conditions of 25° C./60% RH and 40° C./75% RH. […] The XRPD patterns overlay are substantially as depicted in FIG. 7, in which the top, middle and bottom patterns correspond to the initial sample, sample stored at 25° C./60% RH for 11 months and sample stored at 40° C./75% RH for 11 months, respectively.

Data set [3] is described as follows: Hygroscopicity by dynamic vapor sorption (DVS). It counts as physicochemical. Conditions: for Hygroscopicity class: Chinese Pharmacopoeia 2015 guideline 9103, 25° C.; for Weight gain under 80% Relative Humidity: about 10 mg sample. As for the experimental part:
Dynamic vapor sorption (DVS) was applied to assess hygroscopicity of Form E and Form M in patent CN103781770B with about 10 mg of samples. The DVS plots of Form E and Form M were substantially as depicted in FIG. 8 and FIG. 9, respectively.
About hygroscopicity characterization description and definition of hygroscopicity (Chinese Pharmacopoeia 2015 edition general notices 9103 Drug hygroscopicity test guidelines, test at 25° C.+/−1° C., 80% Relative Humidity). • deliquescent: Sufficient water is absorbed to form a liquid; • very hygroscopic: Increase in mass is equal to or greater than 15 percent; • hygroscopic: Increase in mass is less than 15 percent and equal to or greater than 2 percent; • slightly hygroscopic: Increase in mass is less than 2 percent and equal to or greater than 0.2 percent. • no or almost no hygroscopic: Increase in mass is less than 0.2%.

For data set [4] the following is noted: converts to liquid crystalline form B spontaneously when stored for some time; cited from earlier work.

Consider `O=C(O)c1ccc2nc(-c3cc(Cl)cc(Cl)c3)oc2c1` [Liquid crystalline form B, 6-carboxy-2-(3,5-dichlorophenyl)-benzoxazole meglumine salt], for which the “Weight gain when stored at 90% relative humidity” value in data set [1] (90% relative humidity) was “up to 25%”. The “Hygroscopicity (in words)” value in data set [1] (prior-art description) is reported as “highly deliquescent”.

Turning to `O=C(O)c1ccc2nc(-c3cc(Cl)cc(Cl)c3)oc2c1` [Form E, 6-carboxy-2-(3,5-dichlorophenyl)-benzoxazole meglumine salt], in data set [2] (25° C./60% RH and 40° C./75% RH), the “Time the form remains stable” value is given as “at least 11 months”. The “Final Solid Form” value in data set [2] (25° C./60% RH) and in data set [2] (40° C./75% RH) was “Form E” in each case. Besides, the Hygroscopicity class entry in data set [3] (80% RH) is “slightly hygroscopic (Increase in mass is less than 2 percent and equal to or greater than 0.2 percent)”. Moreover, in data set [3] (DVS, 80% RH), the “Weight gain under 80% Relative Humidity” value amounted to 1.82%.

On to `O=C(O)c1ccc2nc(-c3cc(Cl)cc(Cl)c3)oc2c1` [amorphous form A, 6-carboxy-2-(3,5-dichlorophenyl)-benzoxazole meglumine salt], for which, in data set [4], the “Stability (in words)” value is listed as “poor stability”.

As for `O=C(O)c1ccc2nc(-c3cc(Cl)cc(Cl)c3)oc2c1` [Form M, 6-carboxy-2-(3,5-dichlorophenyl)-benzoxazole meglumine salt], the Hygroscopicity class entry in data set [3] (80% RH) was “hygroscopic (Increase in mass is less than 15 percent and equal to or greater than 2 percent)”. The “Weight gain under 75% RH” value in data set [3] (DVS, 75% RH) is 2.98%. In addition, the “Weight gain under 80% Relative Humidity” value in data set [3] (DVS, 80% RH) was 2.98%-4.65%. Further, in data set [3] (DVS, 80% RH, inferred from the 75% RH value), the “Weight gain under 80% RH, inferred from FIG. 8” value is recorded as > 2.98%. In addition, the “Hygroscopicity (in words)” value in data set [3] (background statement, "Studies show") is given as “high”.
